One assay addresses Aβ40 (Homo sapiens, UniProt P05067). Briefly: ThT Aβ aggregation assay (kinetic Thioflavin T fluorescence). The format is biochemical. As to conditions: 20 μM Aβ, DMSO control at 80 hr = 0% inhibition, number in parenthesis = compound ID 1027 in that experiment; for % inhib Thioflavin T Aβ 40 (3 μm): compound 3 μm (so in the source); for inhibition at 5 µM: 80 h, compound 5 μm (so in the source), read-out: % inhib Thioflavin T Aβ 40 (5 μm); for inhibition at 10 µM: compound 10 μM, read-out: % inhib Thioflavin T Aβ 40 10 μM. Here is the method: Preparation of Aβ40 Stock Solutions
Aβ40 (1.0 mg) was pre-treated in a 1.5 mL microfuge tube with HFIP (1 mL) and sonicated for 20 min to disassemble any pre-formed Aβ aggregates. The HFIP was removed with a stream of argon and the Aβ dissolved in Tris base (5.8 mL, 20 mM, pH ˜10). The pH was adjusted to 7.4 with concentrated HCl (˜10 μL) and the solution filtered using a syringe filter (0.2 μm) before being used.
The kinetic ThT assay for Aβ aggregation is similar to that of Chalifour et al (Chalifour et al, 2003, J. Biol. Chem. 278:34874-81). Briefly, pre-treated Aβ40 or Aβ42 (40 μM in 20 mM Tris, pH 7.4) was diluted with an equal volume of 8 μM Thioflavin T (ThT) in Tris (20 mM, pH 7.4, 300 mM NaCl). Aliquots of Aβ/ThT (200 μL) were added to wells of a black polystyrene 96-well plate, followed by 2 μL of a compound in DMSO (variable concentration), or DMSO alone (controls). Incubations were performed in triplicate and were taken to contain 20 μM Aβ, various concentration of compound in 20 mM Tris, pH 7.4, 150 mM NaCl, 1% DMSO. Plates were covered with clear polystyrene lids and incubated at 37° C. in a Tecan Genios microplate reader.
Analysis of ThT and ThS Aggregation Assays
Fluorescence readings (λex=450 nm, λem=480 nm) were taken every 15 min., after first shaking at high intensity for 15 s and allowing to settle for 10 s before each reading. Active compounds attenuated the increase in fluorescence over time that occurred in controls. In FIGS. 1-7, the time this procedure was performed extended to 80 hours (rightmost part of X-axis), at which point fluorescence increase generally reached an asymptote. Applying a definition of DMSO control at 80 hr as 100% aggregation (0% inhibition) and DMSO control at 0 hr as 0% aggregation (100% inhibition), a % inhibition score where higher is better can be calculated for a given concentration of compound. By repeating this procedure over several concentrations, a […] (IC50) can be measured, as is given in the table below for some compounds.

The target in assay [1] is Terminally biotinylated beta-amyloid (Aβ42) (Homo sapiens, UniProt P05067). Description: Aβ42 biotinylated (biotin-AB) oligomerization assay, NeutrAvidin capture ELISA. The assay is classed as biochemical. The settings on record: approximate value; 1 hr oligomerization at room temperature; read-out: IC50 Aβ 42-bio. Here is the method:
Aβ42 Biotinylated Assay Terminally biotinylated beta-amyloid (biotin-AB) was dissolved in HFIP at the concentration of 1 mg/ml and aliquoted to 50 μl/tube in 0.65 ml colored microfuge tubes (Fisher 02-681-248). The aliquots were diluted immediately by adding 450 μl of HFIP to 0.1 mg/ml. Approximately 46 ul (containing approximately 4.6 ug of biotin-AB) were taken from a tube, 100 ul of HFIP added, vortexed, and dried to a thin film under an N2 stream. 100 μl of trifluoroacetic acid (TFA) was added and vortexed. After 10 minute incubation at room temperature in a hood, resulting in disaggregation of seeds, the sample was vortexed again and dried again to a thin film under an N2 stream. 100 μl of HFIP was added, mixed, and the biotin-AB sample was dried for a third time under an N2 stream to remove residual TFA. The treated biotin-AB was dissolved in DMSO to a final peptide concentration of […] (SOX). An ELISA “capture” plate (Costar 9018) was coated with 50 μl of 1 μg/ml NeutrAvidin™ (NA) in 10 mM sodium phosphate buffer, pH 7.5. (NeutrAvidin can be prepared as 1 mg/ml (1000×) in milliQ water/10% glycerol and stored at −80° C. before use.) The plate was sealed plate with adhesive film and stored at 4° C. overnight, then blocked for 2 hours (unsealed) at room temperature with 200 μl/well OFB+0.1% v/v Tween 20. The “capture” plate was allowed to come to room temperature. Several dilutions of test compound were prepared with 100% DMSO, according to the desired concentration to be tested. 2.5 μl of diluted test compound was pipetted into the bottom of each well of a 96-well “dilution” polypropylene plate (Costar 3365), to which was added 250 ul of Oligomer Formation Buffer (OFB: 20 mM sodium phosphate, pH 7.5-150 mM NaCl). To begin oligomerization, 2 μl/well of the biotin-AB was added to the bottom of each well of a 96-well “reaction” polypropylene plate (Costar 3365) and 100 ul of each well of the “dilution” plate was transferred to the “reaction” plate (final concentration of DMSO being up to 1%). The reaction plate was sealed and incubated for 1 hr at room temperature without shaking. The reaction was then stopped by the addition of 50 ul of 0.3% Tween 20 in water. The “capture” plate blocking solution was removed, and 50 ul of each well of the “reaction” plate was transferred to each well of the “capture” plate. The “capture” plate was sealed and incubated for 2 hours at room temperature with shaking at 150 rpm. The “capture” plate was then washed on a plate washer (3×) with 200 ul/well TBST (20 mM Tris-HCL, pH 7.5/150 mM NaCl/0.1% Tween 20). 50 ul of Streptavidin-horseradish […] (1:20,000 dilution) in OFB+0.1% Tween 20 was added to each well, the “capture” plate was sealed and incubated for 1 hr with shaking at 150 rpm. As before, the plate was washed, then 100 ul of TMB/H2O2 substrate solution was added to each well. After 5-10 minutes, 100 ul of 1% v/v sulfuric acid was added and the absorbance of each well was read at 450 nm using a standard plate reader. Data is summarized in the table below; numbers given in parenthesis for the Aβ 40 Thioflavin T assays are the values in that particular experiment for compound ID 1027, given as the first entry in this table for structural comparison. “IC50 Aβ42-bio” column refers to the approximate value of the Aβ42 biotinylated assay IC50 in micromoles/L.

Aβ40, sequence (P05067 672-711, species assumed): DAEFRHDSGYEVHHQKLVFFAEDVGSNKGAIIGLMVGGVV
Terminally biotinylated beta-amyloid (Aβ42), sequence (P05067 672-713, species assumed): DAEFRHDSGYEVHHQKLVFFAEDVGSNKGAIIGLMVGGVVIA

Consider `O=C(c1ccccc1)N1CCN(c2ccc([N+](=O)[O-])c(Nc3ccccc3)c2)CC1` [compound 1027, reference compound], for which, at Aβ40, the “% inhib Thioflavin T Aβ 40 (3 μm)” value turned out to be 26%. Same read-out and setting: the same measure for `OCC1CN(c2cc(-c3cccc(C(O)C(F)(F)F)c3)cc3nonc23)C1` (stereo not drawn) [compound 1428]: 52%; for `OC(c1cccc(-c2cc(N3CCC3)c3nonc3c2)c1)C(F)(F)F` (stereo not drawn) [compound 1432]: 23%. As to `OC(c1cc(-c2cc(N3CCC(N4CCCC4)CC3)c3nonc3c2)cs1)C(F)(F)F` (stereo not drawn) [compound 1463], on Aβ40, the inhibition at 5 µM was 37% and the inhibition at 10 µM was found to be 61%. For orientation: IC50 means the concentration at which inhibition is half-maximal. Take `OC(c1ccc(-c2cc(N3CCC(N4CCCC4)CC3)c3nonc3c2)s1)C(F)(F)F` (stereo not drawn) [compound 1464]: at Aβ40, the inhibition at 10 µM came to 35%. The half-inhibitory concentration (IC50) in assay [1] is greater than 20 µM. As for `CN(C)CCCN(C)c1cc(-c2cccc(C(O)C(F)(F)F)c2)cc2nonc12` (stereo not drawn) [compound 1465], the inhibition at 5 µM at Aβ40 was 44%. Also, in assay [1], the IC50 is greater than 20 µM. With `CN(C)C1CCN(c2cc(-c3cccc(C(O)C(F)(F)F)c3)cc3nonc23)CC1` (stereo not drawn) [compound 1466], the inhibition at 5 µM on Aβ40 was found to be 37%. Besides, the IC50 in assay [1] turned out to be 4.1 µM. As to `OC(c1ccccc1-c1cc(N2CCC(N3CCCC3)CC2)c2nonc2c1)C(F)(F)F` (stereo not drawn) [compound 1467], on Aβ40, the inhibition at 5 µM was 28% and the inhibition at 10 µM came out at 43%. Besides, the IC50 in assay [1] was found to be 5.1 µM. Regarding `OC(c1ccc(-c2cc(N3CCC(N4CCCC4)CC3)c3nonc3c2)cc1)C(F)(F)F` (stereo not drawn) [compound 1468], on Aβ40, the inhibition at 5 µM is 44% and the inhibition at 10 µM turned out to be 65%. In assay [1], the half-inhibitory concentration (IC50) came to 2.4 µM.

`CN(CCCN1CCCC1)c1cc(-c2cccc(C(O)C(F)(F)F)c2)cc2nonc12` (stereo not drawn) [compound 1469]: at Aβ40, the inhibition at 5 µM was determined as 70% and the inhibition at 10 µM turned out to be 75%. In addition, the IC50 in assay [1] is 2.4 µM. `Brc1cc(N2CC(CN3CCOCC3)C2)c2nonc2c1` [compound 1470]: at Aβ40, the inhibition at 10 µM stood at 62%. For the same molecule, in assay [1], the IC50 is greater than 20 µM. With `OC(c1ccccc1-c1cc(N2CC(CN3CCOCC3)C2)c2nonc2c1)C(F)(F)F` (stereo not drawn) [compound 1471], the inhibition at 10 µM on Aβ40 is 29%. In addition, the half-inhibitory concentration (IC50) in assay [1] is 4.4 µM. As to `Brc1cc(N2CC(CN3CCCC3)C2)c2nonc2c1` [compound 1472, 6-bromo-4-(3-(pyrrolidin-1-ylmethyl)azetidin-1-yl)benzo[c][1,2,5]oxadiazole], the inhibition at 10 µM at Aβ40 is 65%. Moreover, in assay [1], the IC50 was 3.6 µM. Consider `c1cc(N2CC(CN3CCCC3)C2)c2nonc2c1` [compound 1473], for which the inhibition at 10 µM on Aβ40 was 31%. In addition, the half-maximal inhibitory concentration (IC50) in assay [1] was 18.1 µM. Regarding `COc1ncccc1-c1cc(N2CC(CN3CCOCC3)C2)c2nonc2c1` [compound 1658, 6-(2-methoxypyridin-3-yl)-4-(3-(morpholinomethyl)azetidin-1-yl) benzo[c][1,2,5]oxadiazole], the half-inhibitory concentration (IC50) in assay [1] is greater than 20 µM. Consider `COc1cc(-c2cc(N3CC(CN4CCOCC4)C3)c3nonc3c2)ccn1` [compound 1659, 6-(2-methoxypyridin-4-yl)-4-(3-(morpholinomethyl)azetidin-1-yl) benzo[c][1,2,5]oxadiazole], for which the concentration for half-maximal inhibition (IC50) in assay [1] amounted to 12.4 µM.

For the molecule `COc1cc(-c2cc(N3CC(CN4CCOCC4)C3)c3nonc3c2)ccc1C1CC1` [compound 1660, 6-(4-cyclopropyl-3-methoxyphenyl)-4-(3-(morpholinomethyl)azetidin-1-yl) benzo[c][1,2,5]oxadiazole], in assay [1], the IC50 turned out to be 3.9 µM.

Turning to `OC1(c2ccccc2-c2cc(N3CC(CN4CCOCC4)C3)c3nonc3c2)COC1` [compound 1663], the IC50 in assay [1] was greater than 20 µM. For `OC(/C=C/c1cc(N2CC(CN3CCOCC3)C2)c2nonc2c1)C(F)(F)F` (stereo not drawn) [compound 1665, (E)-1,1,1-trifluoro-4-(7-(3-(morpholinomethyl)azetidin-1-yl)benzo[c][1,2,5]oxadiazol-5-yl)but-3-en-2-ol], the IC50 in assay [1] stood at 21.8 µM. Take `CC(C)(O)C1CC1c1cc(N2CC(CN3CCOCC3)C2)c2nonc2c1` (stereo not drawn) [compound 1666, 2-(2-(7-(3-(morpholinomethyl)azetidin-1-yl)benzo[c][1,2,5]oxadiazol-5-yl)cyclopropyl)propan-2-ol]: the half-maximal inhibitory concentration (IC50) in assay [1] is greater than 20 µM. Same read-out and setting: the same measure for `OC(c1ncoc1-c1cc(N2CC(CN3CCOCC3)C2)c2nonc2c1)C(F)(F)F` (stereo not drawn) [compound 1667]: 17.5 µM; for `COc1ccc(-c2cc(N3CC(CN4CCOCC4)C3)c3nonc3c2)cn1` [compound 1670, 6-(6-methoxypyridin-3-yl)-4-(3-(morpholinomethyl)azetidin-1-yl) benzo[c][1,2,5]oxadiazole]: 11.2 µM; for `OC(c1ncc(-c2cc(N3CC(CN4CCOCC4)C3)c3nonc3c2)o1)C(F)(F)F` (stereo not drawn) [compound 1677]: 26.1 µM.

As for `OC1(c2cc(N3CC(CN4CCOCC4)C3)c3nonc3c2)CC(OCc2ccccc2)C1` (stereo not drawn) [compound 1692, 3-(benzyloxy)-1-(7-(3-(morpholinomethyl)azetidin-1-yl)benzo[c][1,2,5]oxadiazol-5-yl) cyclobutan-1-ol], in assay [1], the IC50 was 5.6 µM. As for `OC1(c2ccc(-c3cc(N4CCC(N5CCOCC5)CC4)c4nonc4c3)cc2)COC1` [compound 1717], in assay [1], the concentration for half-maximal inhibition (IC50) came to 22.6 µM. With `OC1(c2ccc(-c3cc(N4CCC(N5CCOCC5)C4)c4nonc4c3)cc2)COC1` (stereo not drawn) [compound 1719], the IC50 in assay [1] was 13 µM. Regarding `CC(=O)NC1CCN(c2cc(-c3ccc(C4(O)COC4)cc3)cc3nonc23)CC1` [compound 1735], in assay [1], the IC50 turned out to be 2.4 µM. For `OC1(c2ccc(-c3cc(N4CCC(CN5CCOCC5)CC4)c4nonc4c3)cc2)COC1` [compound 1736], in assay [1], the IC50 is 9.7 µM.
